Like-named read-outs stand apart in the source and are kept apart here.

Experiment [1] concerns acyl-coenzyme A: cholesterol acyltransferase (ACAT). Briefly: ACAT inhibition (intracellular cholesterol esterification, procedure of Ross et al.). In kind it is cell-based. As to conditions: for IC50: read-out: ACAT IC50. The source says:
1. The ability of the compounds of this invention to inhibit acyl-coenzyme A: cholesterol acyltransferase was established by initially showing that they inhibited intracellular cholesterol esterification by subjecting them to the standard experimental test procedure of Ross et al., J. Biol. Chem. 259, 815 (1984).

Experiment [2] deals with T1, cholesterol esterase (EC 3.1.1.13) from bovine pancreas (CEH) (Bos taurus, UniProt P30122).
T1 construct: purchased Sigma Company, St. Louis, Mo., U.S.A. C-1892; host or cells: bovine pancreas
T1 sequence (P30122 19-597): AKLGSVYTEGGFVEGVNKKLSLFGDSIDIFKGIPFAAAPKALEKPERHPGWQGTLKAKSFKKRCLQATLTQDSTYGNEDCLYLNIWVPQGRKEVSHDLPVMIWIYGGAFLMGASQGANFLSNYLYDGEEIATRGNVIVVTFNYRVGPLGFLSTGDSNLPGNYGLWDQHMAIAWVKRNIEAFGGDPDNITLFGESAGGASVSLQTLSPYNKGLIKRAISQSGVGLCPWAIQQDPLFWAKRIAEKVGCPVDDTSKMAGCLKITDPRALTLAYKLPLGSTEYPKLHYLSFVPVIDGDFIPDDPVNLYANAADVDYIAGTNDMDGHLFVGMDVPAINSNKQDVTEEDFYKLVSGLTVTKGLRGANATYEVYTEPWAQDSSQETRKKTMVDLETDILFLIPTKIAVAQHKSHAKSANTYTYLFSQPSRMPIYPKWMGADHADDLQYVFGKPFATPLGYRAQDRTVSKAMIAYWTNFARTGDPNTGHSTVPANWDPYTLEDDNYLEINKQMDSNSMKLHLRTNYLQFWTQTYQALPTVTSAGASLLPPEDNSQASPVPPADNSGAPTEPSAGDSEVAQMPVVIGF
Briefly: CEH inhibition (cholesteryl ester formation from cholesterol and oleic acid by buffered cholesterol esterase). In kind it is biochemical. How it is done: 2. The ability of the compounds of this invention to inhibit the formation of cholesteryl esters and thereby interfere with and prevent assimilation of cholesterol into the lymphatic system and ultimately the blood stream was established by incubating the compounds at 37° C. with a mixture of cholesterol and oleic acid in the presence of buffered cholesterol esterase [(EC 3.1.1.13) Sigma Company, St. Louis, Mo., U.S.A., No. C-1892, from bovine pancreas] and measuring the amount of ester formed, according to the procedure of Field, J. of Lipid Research, 25 389 (1984).

Experiment [3] deals with Absorption of 14C-cholesterol in normal rat. Briefly: In vivo cholesterol absorption, oral [4-14C] cholesterol, normal rats. As to conditions: read-out: Effect on Absorption of 14C-Chol., % Decrease. How it is done:
The in vivo cholesterol absorption studies were conducted in normal rats by oral administration of the compound being tested in propylene glycol and olive oil followed by oral administration of [4-^14 C] cholesterol in propylene glycol and olive oil, otherwise following the procedure of Cayen et al., J. Lipid Res. 20 162 (1979). The serum radioactivity was measured at six hours after dosing. The results of this study are reported in the following table, where available, as percent decrease compared to control and in terms of the effective dose (ED50) inhibiting fifty-percent of the absorption of the control animals.

Setting [4] is: 37° C., bovine pancreas enzyme, read-out: CEH IC50.
[5] abbreviates: normal rat, oral, 6 hr, 10 mg/kg, serum radioactivity vs control.
Where [6] appears, read: normal rat, oral, 6 hr, serum radioactivity vs control.

In the case of `CCCCNC(=O)OC1CCN(C(=O)Oc2ccc(Oc3ccccc3)cc2)CC1` [Example 2, 4-[[(Butylamino)carbonyl]oxy]-1-piperidinecarboxylic acid 4-phenoxyphenyl ester], in experiment [1], the “ACAT % inhibition at 25 μM” value came to 96% and the concentration for half-maximal inhibition (IC50) came to 2000 nM. In addition, in experiment [2], the half-maximal inhibitory concentration (IC50) turned out to be 2300 nM.

Turning to `CCCCCCNC(=O)OC1CCN(C(=O)Oc2ccc(Oc3ccccc3)cc2)CC1` [Example 3, 4-[[(Hexylamino)carbonyl]oxy]-1-piperidinecarboxylic acid 4-phenoxyphenyl ester], in experiment [1], the “ACAT % inhibition at 25 μM” value stood at 94% and the 50% inhibitory concentration (IC50) amounted to 640 nM. The compound further gave an IC50 in experiment [2] of 9800 nM. In addition, the inhibition in vivo at 10 mg/kg in experiment [3] (Rattus norvegicus, po, 6 h) came to 85%.

In the case of `CCCCCCCCNC(=O)OC1CCN(C(=O)Oc2ccc(Oc3ccccc3)cc2)CC1` [Example 4, 4-[[(Octylamino)carbonyl]oxy]-1-piperidinecarboxylic acid 4-phenoxyphenyl ester], the “ACAT % inhibition at 25 μM” value in experiment [1] stood at 94%. In addition, the figures for the IC50 in experiment [1] and in experiment [2] (setting [4]) were 820 nM and > 100000 nM, respectively. In addition, the inhibition in vivo at 100 mg/kg in experiment [3] (normal rat, oral, 6 hr, 100 mg/kg, serum radioactivity vs control) stood at 92%.

With `O=C(NC1CCCCC1)OC1CCN(C(=O)Oc2ccc(Oc3ccccc3)cc2)CC1` [Example 5, 4-[[(Cyclohexylamino)carbonyl]oxy]-1-piperidinecarboxylic acid 4-phenoxyphenyl ester], in experiment [1], the “ACAT % inhibition at 25 μM” value is on record as 92% and the half-maximal inhibitory concentration (IC50) was found to be 1680 nM. Moreover, in experiment [2] (setting [4]), the IC50 was 9500 nM. The inhibition in vivo at 10 mg/kg in experiment [3] (setting [5]) turned out to be 89%.

Take `CCCCCCCCCCCCNC(=O)OC1CCN(C(=O)Oc2ccc(Oc3ccccc3)cc2)CC1` [Example 6, 4-[[(Dodecylamino)carbonyl]oxy]-1-piperidinecarboxylic acid 4-phenoxyphenylester]: the “ACAT % inhibition at 25 μM” value in experiment [1] was determined as 88%. The figures for the IC50 in experiment [1] and in experiment [2] (setting [4]) were 510 nM and 16000 nM, respectively. Moreover, the inhibition in vivo at 10 mg/kg in experiment [3] (setting [5]) amounted to 57%.

Consider `CCCCCCCCCCCCCCCCCCNC(=O)OC1CCN(C(=O)Oc2ccc(Oc3ccccc3)cc2)CC1` [Example 7, 4-[[(Octadecylamino)carbonyl]oxy]-1-piperidinecarboxylic acid 4-phenoxyphenyl ester], for which, in experiment [2] (setting [4]), the 50% inhibitory concentration (IC50) is > 100000 nM. In addition, the inhibition in vivo at 25 mg/kg in experiment [3] (setting [6]) is 28%.

`CC(C)CCCC(C)NC(=O)OC1CCN(C(=O)Oc2ccc(Oc3ccccc3)cc2)CC1` (stereo not shown) [Example 8, 4-[[[(1,5-Dimethylhexyl)amino]carbonyl]oxy]-1-piperidinecarboxylic acid 4-phenoxyphenyl ester]: in experiment [2] (setting [4]), the IC50 was found to be 13000 nM.

Regarding `CC1CCN(C(=O)OC2CCN(C(=O)Oc3ccc(Oc4ccccc4)cc3)CC2)CC1` [Example 9], in experiment [2] (setting [4]), the half-inhibitory concentration (IC50) was 1100 nM.

As to `CCCCCCCN(Cc1ccc(CC(C)(C)C)cc1)C(=O)OC1CCN(C(=O)Oc2ccc(Oc3ccccc3)cc2)CC1` [Example 10, 4-[[[[[4-(2,2-Dimethylpropyl)phenyl]methyl]heptylamino]carbonyl]oxy]-1-piperidinecarboxylic acid 4-phenoxyphenyl ester], the “ACAT % inhibition at 25 μM” value in experiment [1] worked out at 84%. Further, the half-maximal inhibitory concentration (IC50) in experiment [1] was 3300 nM; in experiment [2] (setting [4]), > 100000 nM.

`CNC(=O)OC1CCN(C(=O)Oc2ccc(Oc3ccccc3)cc2)CC1` [Example 11, 4-[[(Methylamino)carbonyl]oxy]-1-piperidinecarboxylic acid 4-phenoxyphenyl ester] showed an IC50 in experiment [2] of 2100 nM.

On to `CCN(CC)C(=O)OC1CCN(C(=O)Oc2ccc(Oc3ccccc3)cc2)CC1` [Example 12, 4-[[(Diethylamino)carbonyl]oxy]-1-piperidinecarboxylic acid 4-phenoxyphenylester], for which, in experiment [1], the “ACAT % inhibition at 25 μM” value came to 93% and the half-inhibitory concentration (IC50) was found to be 1370 nM. The compound also displayed a concentration for half-maximal inhibition (IC50) in experiment [2] of 11400 nM.

Regarding `O=C(NCCCCc1ccccc1)OC1CCN(C(=O)Oc2ccc(Oc3ccccc3)cc2)CC1` [Example 13, 4-[[[(4-Phenylbutyl)amino]carbonyl]oxy]-1-piperidinecarboxylic acid 4-phenoxyphenyl ester], in experiment [1], the “ACAT % inhibition at 25 μM” value is 96% and the half-maximal inhibitory concentration (IC50) stood at 230 nM. In experiment [2] (setting [4]), the concentration for half-maximal inhibition (IC50) amounted to 5000 nM. For the same compound, in experiment [3] (setting [5]), the inhibition in vivo at 10 mg/kg stood at 41%.

With `CCCCCCCC/C=C\CCCCCCCCNC(=O)OC1CCN(C(=O)Oc2ccc(Oc3ccccc3)cc2)CC1` [Example 14], the IC50 in experiment [2] (setting [4]) was found to be 43000 nM. Also, the inhibition in vivo at 25 mg/kg in experiment [3] (setting [6]) was 21%.

Regarding `O=C(Oc1ccc(Oc2ccccc2)cc1)N1CCC(OC(=O)N2CCSCC2)CC1` [Example 15, 4-Thiomorpholinecarboxylic acid 1-[(4-phenxoyphenoxy)carbonyl]-4-piperidinyl ester], in experiment [2] (setting [4]), the half-maximal inhibitory concentration (IC50) is 79000 nM.

For the compound `O=C(Oc1ccc(Oc2ccccc2)cc1)N1CCC(OC(=O)N2CCC(c3ccccc3)CC2)CC1` [Example 16, 4-Phenyl-1-piperidinecarboxylic acid 1-[(4-phenoxyphenoxy)carbonyl]-4-piperidinyl ester], the “ACAT % inhibition at 25 μM” value in experiment [1] was 91%. The concentration for half-maximal inhibition (IC50) in experiment [1] amounted to 510 nM; in experiment [2] (setting [4]), 12000 nM. In addition, in experiment [3] (setting [5]), the inhibition in vivo at 10 mg/kg is 48%.

In the case of `O=C(NCC1CCCCC1)OC1CCN(C(=O)Oc2ccc(Oc3ccccc3)cc2)CC1` [Example 17, 4-[[[(Cyclohexylmethyl)amino]carbonyl]oxy]-1-piperidinecarboxylic acid 4-phenoxyphenyl ester], the “ACAT % inhibition at 25 μM” value in experiment [1] is 97%. Besides, the IC50 in experiment [1] was 490 nM; in experiment [2] (setting [4]) it was 19000 nM. Moreover, the inhibition in vivo at 3 mg/kg in experiment [3] (normal rat, oral, 6 hr, 3 mg/kg, serum radioactivity vs control) was determined as 68%.

With `CCCCCCNC(=O)OC1CCN(C(=O)Oc2ccc(Oc3ccc(C)cc3)cc2)CC1` [Example 18, 4-[[(Hexylamino)carbonyl]oxy]-1-piperidinecarboxylic acid 4-(4-methylphenoxy)phenyl ester], the IC50 in experiment [2] (setting [4]) was found to be 2000 nM. The inhibition in vivo at 10 mg/kg in experiment [3] (setting [5]) was found to be 25%.

Consider `CCCCCCNC(=O)OC1CCN(C(=O)Oc2ccc(Oc3ccc(OC)cc3)cc2)CC1` [Example 19, 4-[[(Hexylamino)carbonyl]oxy]-1-piperidinecarboxylic acid 4-(4-methoxyphenoxy)phenyl ester], for which the IC50 in experiment [2] (setting [4]) is 2800 nM. The inhibition in vivo at 10 mg/kg in experiment [3] (setting [5]) was 29%.

A word on the IC50: it is the midpoint of a concentration-inhibition curve.

The values above are taken from US5169844A, “4-substituted piperidinecarboxylic acid esters: inhibition of cholesterol absorption” (priority 1991, dated 1992).
